Legend:
[1] = molecular target: Tyrosine-protein kinase ABL1 (Homo sapiens, UniProt P00519); assay: Inhibition of recombinant full length human His-tagged ABL1 cytoplasmic domain expressed in baculovirus expression system using tyrosine-2 peptide as substrate incubated for 60 mins in presence of ATP by Z'-LYTE assay
[2] = molecular target: Tyrosine-protein kinase Fes/Fps (Homo sapiens, UniProt P07332); assay: Inhibition of recombinant His-tagged full length human FES expressed in baculovirus expression system using Tyr 01 peptide as substrate after 1 hr by Z'-LYTE assay
[3] = molecular target: Ephrin type-A receptor 5 (Homo sapiens, UniProt P54756); assay: Inhibition of recombinant human GST-tagged EPHA5 cytoplasmic domain expressed in baculovirus expression system using tyrosine-01 peptide as substrate incubated for 60 mins in presence of ATP by Z'-Lyte assay
Chain of Ephrin type-A receptor 5 (P54756 whole entry, the tested form may be a part): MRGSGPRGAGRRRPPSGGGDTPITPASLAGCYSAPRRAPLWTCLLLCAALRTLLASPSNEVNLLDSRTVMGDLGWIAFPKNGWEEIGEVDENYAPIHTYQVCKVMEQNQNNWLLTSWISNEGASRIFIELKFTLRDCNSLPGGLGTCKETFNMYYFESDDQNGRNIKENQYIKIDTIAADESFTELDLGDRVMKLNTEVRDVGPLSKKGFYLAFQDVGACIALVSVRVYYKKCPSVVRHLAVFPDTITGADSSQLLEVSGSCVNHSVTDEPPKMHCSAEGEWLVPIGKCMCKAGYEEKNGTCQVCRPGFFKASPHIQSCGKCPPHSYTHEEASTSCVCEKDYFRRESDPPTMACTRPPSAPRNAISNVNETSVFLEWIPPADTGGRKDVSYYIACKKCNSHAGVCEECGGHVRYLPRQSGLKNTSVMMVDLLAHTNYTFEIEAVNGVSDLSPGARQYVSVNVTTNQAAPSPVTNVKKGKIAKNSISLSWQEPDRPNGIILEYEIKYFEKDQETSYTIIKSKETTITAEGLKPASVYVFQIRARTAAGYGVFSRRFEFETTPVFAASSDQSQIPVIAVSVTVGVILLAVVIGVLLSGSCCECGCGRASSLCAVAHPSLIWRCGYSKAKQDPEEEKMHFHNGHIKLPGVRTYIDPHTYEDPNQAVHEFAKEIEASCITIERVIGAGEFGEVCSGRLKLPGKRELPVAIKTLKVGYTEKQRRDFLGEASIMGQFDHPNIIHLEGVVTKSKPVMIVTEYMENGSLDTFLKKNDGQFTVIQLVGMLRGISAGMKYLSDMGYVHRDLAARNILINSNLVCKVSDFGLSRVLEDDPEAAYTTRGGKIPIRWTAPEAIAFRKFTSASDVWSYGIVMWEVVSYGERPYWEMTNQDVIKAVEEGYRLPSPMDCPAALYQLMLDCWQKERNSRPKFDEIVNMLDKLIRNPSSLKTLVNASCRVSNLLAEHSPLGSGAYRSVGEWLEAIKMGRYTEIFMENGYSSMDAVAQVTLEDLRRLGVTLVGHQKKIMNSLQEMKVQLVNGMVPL

[4] = molecular target: Receptor-type tyrosine-protein kinase FLT3 (Homo sapiens, UniProt P36888); assay: Inhibition of recombinant human His-tagged FLT3 cytoplasmic domain (564 to 958 residues) expressed in baculovirus expression system using tyrosine-2 peptide as substrate incubated for 60 mins in presence of ATP by Z'-LYTE assay
[5] = molecular target: Phosphatidylinositol 4-kinase alpha (Homo sapiens, UniProt P42356); assay: Inhibition of recombinant full length human N-terminal GST-tagged PI4KA expressed in baculovirus expression system using PI lipid as substrate incubated for 60 mins in presence of ATP by Adapta assay
[6] = molecular target: Inhibitor of nuclear factor kappa-B kinase subunit alpha (Homo sapiens, UniProt O15111); assay: Inhibition of recombinant full length His-tagged human IKKalpha expressed in baculovirus expression system after 1 hr in presence of ATP by Adapta assay
[7] = molecular target: Vascular endothelial growth factor receptor 1 (Homo sapiens, UniProt P17948); assay: Inhibition of recombinant human GST-tagged FLT1 catalytic domain (781 to 1338 residues) expressed in baculovirus expression system using tyrosine-4 peptide as substrate incubated for 60 mins in presence of ATP by Z'-LYTE assay
[8] = molecular target: Protein kinase C iota type (Homo sapiens, UniProt P41743); assay: Inhibition of recombinant full length human His-tagged PRKCI expressed in baculovirus expression system using serine/threonine-7 peptide as substrate incubated for 60 mins in presence of ATP by Z'-LYTE assay
[9] = molecular target: Protein-tyrosine kinase 6 (Homo sapiens, UniProt Q13882); assay: Inhibition of recombinant full length human His-tagged BRK expressed in baculovirus expression system using tyr01 peptide as substrate incubated for 60 mins in presence of ATP by Z'-LYTE assay
Chain of Protein-tyrosine kinase 6 (Q13882 whole entry): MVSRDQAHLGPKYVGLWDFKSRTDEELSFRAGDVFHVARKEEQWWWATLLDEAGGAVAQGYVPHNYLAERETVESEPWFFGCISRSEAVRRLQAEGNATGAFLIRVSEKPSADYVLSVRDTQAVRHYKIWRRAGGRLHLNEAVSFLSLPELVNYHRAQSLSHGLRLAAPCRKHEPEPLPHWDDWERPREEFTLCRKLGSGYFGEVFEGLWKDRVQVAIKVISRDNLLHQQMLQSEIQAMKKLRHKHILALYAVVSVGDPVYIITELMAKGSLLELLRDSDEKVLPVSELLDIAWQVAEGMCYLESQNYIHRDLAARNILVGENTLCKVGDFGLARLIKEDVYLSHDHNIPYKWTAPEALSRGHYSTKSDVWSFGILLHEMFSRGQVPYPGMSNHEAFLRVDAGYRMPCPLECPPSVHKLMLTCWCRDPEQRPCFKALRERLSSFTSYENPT

[10] = molecular target: Serine/threonine-protein kinase PAK 2 (Homo sapiens, UniProt Q13177); assay: Inhibition of recombinant full length human GST-tagged PAK2 expressed in baculovirus expression system using serine/threonine-20 peptide as substrate incubated for 60 mins in presence of ATP by Z'-LYTE assay
[11] = molecular target: Serine/threonine-protein kinase MARK2 (Homo sapiens, UniProt Q7KZI7); assay: Inhibition of recombinant full length human GST-tagged MARK2 expressed in baculovirus expression system using serine/threonine-21 peptide as substrate incubated for 60 mins in presence of ATP by Z'-LYTE assay
[12] = molecular target: MAP kinase-activated protein kinase 3 (Homo sapiens, UniProt Q16644); assay: Inhibition of recombinant His-tagged human full length MAPKAPK3 expressed in baculovirus expression system using Ser/Thr-04 peptide as substrate after 1 hr in presence of ATP by Z'LYTE assay
Chain of MAP kinase-activated protein kinase 3 (Q16644 whole entry): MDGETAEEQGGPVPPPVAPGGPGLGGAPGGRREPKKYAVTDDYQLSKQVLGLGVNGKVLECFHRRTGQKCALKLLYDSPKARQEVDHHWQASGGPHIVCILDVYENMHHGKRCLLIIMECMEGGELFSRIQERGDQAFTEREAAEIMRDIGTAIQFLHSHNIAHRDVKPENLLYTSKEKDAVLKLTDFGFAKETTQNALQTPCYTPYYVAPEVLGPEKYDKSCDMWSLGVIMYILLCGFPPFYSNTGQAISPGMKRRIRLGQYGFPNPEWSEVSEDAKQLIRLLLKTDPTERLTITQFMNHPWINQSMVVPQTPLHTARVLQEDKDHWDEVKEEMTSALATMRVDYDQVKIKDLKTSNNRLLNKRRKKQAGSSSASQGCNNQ

[13] = molecular target: Estrogen receptor (Homo sapiens) (UniProt P03372); assay: Displacement of [3H]estradiol from recombinant full length human recombinant ERalpha receptor expressed in Sf9 insect cells at 10 uMmeasured after 120 mins by radiometric scintillation analysis relative to control; details: 10 uM
Chain of Estrogen receptor (Homo sapiens) (P03372 whole entry): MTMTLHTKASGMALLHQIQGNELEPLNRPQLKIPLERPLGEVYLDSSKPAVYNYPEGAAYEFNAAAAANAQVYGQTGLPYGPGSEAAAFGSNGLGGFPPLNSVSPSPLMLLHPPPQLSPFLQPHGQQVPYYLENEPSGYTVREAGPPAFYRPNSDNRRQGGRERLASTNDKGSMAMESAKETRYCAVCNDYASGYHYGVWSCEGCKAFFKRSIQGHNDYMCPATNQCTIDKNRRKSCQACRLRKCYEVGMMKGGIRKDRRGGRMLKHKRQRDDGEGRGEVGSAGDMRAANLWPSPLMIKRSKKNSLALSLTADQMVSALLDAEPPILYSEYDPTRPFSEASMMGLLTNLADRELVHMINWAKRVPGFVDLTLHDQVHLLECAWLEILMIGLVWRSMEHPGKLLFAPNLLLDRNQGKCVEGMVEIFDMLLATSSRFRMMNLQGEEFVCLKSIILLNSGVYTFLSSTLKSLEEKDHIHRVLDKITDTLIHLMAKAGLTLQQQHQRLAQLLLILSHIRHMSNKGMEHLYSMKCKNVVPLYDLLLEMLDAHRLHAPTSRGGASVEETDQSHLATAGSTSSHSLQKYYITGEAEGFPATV

[14] = molecular target: Glycine receptor (Rattus norvegicus) (UniProt P22771+P24524+P07727+P20781); assay: Displacement of [3H]strychnine from glycine ion channel in Wistar rat spinal cord membranes at 10 uM incubated for 10 mins by radiometric scintillation analysis relative to control; format: cell membranes; details: Membrane
[15] = molecular target: BDNF/NT-3 growth factors receptor (Homo sapiens, UniProt Q16620); assay: Inhibition of recombinant human His-tagged NTRK2 cytoplasmic domain (526 to 838 residues) expressed in baculovirus expression system using tyrosine-01 peptide as substrate incubated for 60 mins in presence of ATP by Z'-LYTE assay
[16] = molecular target: Ephrin type-A receptor 8 (Homo sapiens, UniProt P29322); assay: Inhibition of recombinant human GST-tagged EPHA8 catalytic domain (565 to 1005 residues) expressed in baculovirus expression system using tyrosine-2 peptide as substrate incubated for 60 mins in presence of ATP by Z'-LYTE assay
Chain of Ephrin type-A receptor 8 (P29322 whole entry, the tested form may be a part): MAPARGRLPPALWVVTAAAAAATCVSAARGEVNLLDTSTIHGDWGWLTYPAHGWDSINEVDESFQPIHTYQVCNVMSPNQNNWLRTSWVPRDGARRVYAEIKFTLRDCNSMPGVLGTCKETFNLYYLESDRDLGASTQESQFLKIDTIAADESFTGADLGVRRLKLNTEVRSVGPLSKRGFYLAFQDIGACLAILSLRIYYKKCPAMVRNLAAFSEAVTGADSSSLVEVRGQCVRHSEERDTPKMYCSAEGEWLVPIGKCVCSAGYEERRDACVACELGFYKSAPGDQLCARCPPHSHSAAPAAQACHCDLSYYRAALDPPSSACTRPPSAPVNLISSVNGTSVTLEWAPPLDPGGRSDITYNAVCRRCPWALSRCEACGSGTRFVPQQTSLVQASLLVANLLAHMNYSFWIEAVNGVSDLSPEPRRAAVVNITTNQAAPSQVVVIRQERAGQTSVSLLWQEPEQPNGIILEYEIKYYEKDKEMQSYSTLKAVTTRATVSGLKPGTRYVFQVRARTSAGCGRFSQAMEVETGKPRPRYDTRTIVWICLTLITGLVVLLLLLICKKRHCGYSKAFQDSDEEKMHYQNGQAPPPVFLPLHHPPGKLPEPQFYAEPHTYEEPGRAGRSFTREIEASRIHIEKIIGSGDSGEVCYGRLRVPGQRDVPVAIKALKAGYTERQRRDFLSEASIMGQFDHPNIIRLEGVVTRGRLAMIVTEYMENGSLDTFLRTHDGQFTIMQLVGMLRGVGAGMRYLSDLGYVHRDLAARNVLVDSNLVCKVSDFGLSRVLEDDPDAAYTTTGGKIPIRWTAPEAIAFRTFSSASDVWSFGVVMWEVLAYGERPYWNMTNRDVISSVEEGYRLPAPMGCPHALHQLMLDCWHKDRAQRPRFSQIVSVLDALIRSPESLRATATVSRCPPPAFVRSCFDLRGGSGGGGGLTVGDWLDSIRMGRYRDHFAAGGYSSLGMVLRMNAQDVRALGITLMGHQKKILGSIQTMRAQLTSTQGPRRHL

[17] = molecular target: Tyrosine-protein kinase TXK (Homo sapiens, UniProt P42681); assay: Inhibition of recombinant human GST-tagged TXK catalytic domain (260 to 527 residues) expressed in baculovirus expression system using tyrosine-6 peptide as substrate incubated for 60 mins in presence of ATP by Z'-LYTE assay
Chain of Tyrosine-protein kinase TXK (P42681 whole entry, the tested form may be a part): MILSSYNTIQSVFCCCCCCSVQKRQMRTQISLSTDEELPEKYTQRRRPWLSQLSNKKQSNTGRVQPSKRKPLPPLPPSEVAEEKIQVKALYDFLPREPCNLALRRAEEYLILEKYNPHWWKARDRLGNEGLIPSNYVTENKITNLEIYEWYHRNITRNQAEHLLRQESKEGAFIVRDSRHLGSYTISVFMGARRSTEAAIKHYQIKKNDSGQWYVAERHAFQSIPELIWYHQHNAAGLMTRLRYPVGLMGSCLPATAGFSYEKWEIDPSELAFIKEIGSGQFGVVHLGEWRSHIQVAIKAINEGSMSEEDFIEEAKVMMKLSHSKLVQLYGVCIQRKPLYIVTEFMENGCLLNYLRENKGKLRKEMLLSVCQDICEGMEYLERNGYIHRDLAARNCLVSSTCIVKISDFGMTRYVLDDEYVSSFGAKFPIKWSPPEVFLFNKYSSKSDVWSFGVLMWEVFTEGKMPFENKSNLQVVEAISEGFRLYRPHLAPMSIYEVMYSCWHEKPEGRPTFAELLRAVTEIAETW

[18] = molecular target: Alpha-2B adrenergic receptor (Homo sapiens) (UniProt P18089); assay: Displacement of [3H]rauwolscine from full-length recombinant human alpha2B receptor expressed in CHOK1 cells at 10 uM measured after 60 mins by scintillation counting method relative to control; format: cell-based; details: CHO-K1
[19] = molecular target: D(2) dopamine receptor (Homo sapiens) (UniProt P14416); assay: Displacement of [3H]spiperone from recombinant full length human recombinant D2S receptor expressed in CHO cells at 10 uM measured after 120 mins by radiometric scintillation analysis relative to control; format: cell-based
Chain of D(2) dopamine receptor (Homo sapiens) (P14416 whole entry): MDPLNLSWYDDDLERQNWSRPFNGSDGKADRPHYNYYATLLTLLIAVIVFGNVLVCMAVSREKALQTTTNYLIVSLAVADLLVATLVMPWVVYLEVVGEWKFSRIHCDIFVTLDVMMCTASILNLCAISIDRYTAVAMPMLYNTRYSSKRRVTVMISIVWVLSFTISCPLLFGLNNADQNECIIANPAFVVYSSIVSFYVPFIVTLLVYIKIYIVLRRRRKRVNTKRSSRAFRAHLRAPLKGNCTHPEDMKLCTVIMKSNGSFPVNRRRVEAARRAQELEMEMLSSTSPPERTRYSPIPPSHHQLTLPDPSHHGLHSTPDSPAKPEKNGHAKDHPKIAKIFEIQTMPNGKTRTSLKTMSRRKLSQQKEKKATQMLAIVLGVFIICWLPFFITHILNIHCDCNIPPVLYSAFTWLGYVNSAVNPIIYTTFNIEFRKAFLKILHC

[20] = molecular target: Tyrosine-protein kinase Lyn (Homo sapiens, UniProt P07948); assay: Inhibition of recombinant full length human His-tagged LYN-A expressed in baculovirus expression system using tyrosine-2 peptide as substrate incubated for 60 mins in presence of ATP by Z'-LYTE assay
[21] = molecular target: Proto-oncogene tyrosine-protein kinase Src (Homo sapiens, UniProt P12931); assay: Inhibition of recombinant full length human His-tagged SRC expressed in baculovirus expression system using tyrosine-2 peptide as substrate incubated for 60 mins in presence of ATP by Z'-LYTE assay
[22] = molecular target: Insulin-like growth factor 1 receptor (Homo sapiens, UniProt P08069); assay: Inhibition of recombinant human His-tagged IGF1R expressed in baculovirus expression system using tyrosine 1 peptide as substrate incubated for 60 mins in presence of ATP by Z'-LYTE assay
[23] = organism: Homo sapiens; assay: Inhibition of human nicotinic acetylcholine receptor at 10 uM relative to control
[24] = molecular target: Mitogen-activated protein kinase kinase kinase 8 (Homo sapiens, UniProt P41279); assay: Inhibition of recombinant human GST-tagged MAP3K8 catalytic domain expressed in baculovirus expression system using serine/threonine-3 peptide as substrate incubated for 60 mins in presence of ATP by Z'-LYTE assay
[25] = molecular target: Type-1 angiotensin II receptor (Homo sapiens) (UniProt P30556); assay: Displacement of [125I][Sar1,Ile8]-AT-II from full length human recombinant AT1 receptor expressed in CHOK1 cells at 10 uM measured after 120 mins by radiometric scintillation analysis relative to control; format: cell-based; details: CHO-K1
Chain of Type-1 angiotensin II receptor (Homo sapiens) (P30556 whole entry): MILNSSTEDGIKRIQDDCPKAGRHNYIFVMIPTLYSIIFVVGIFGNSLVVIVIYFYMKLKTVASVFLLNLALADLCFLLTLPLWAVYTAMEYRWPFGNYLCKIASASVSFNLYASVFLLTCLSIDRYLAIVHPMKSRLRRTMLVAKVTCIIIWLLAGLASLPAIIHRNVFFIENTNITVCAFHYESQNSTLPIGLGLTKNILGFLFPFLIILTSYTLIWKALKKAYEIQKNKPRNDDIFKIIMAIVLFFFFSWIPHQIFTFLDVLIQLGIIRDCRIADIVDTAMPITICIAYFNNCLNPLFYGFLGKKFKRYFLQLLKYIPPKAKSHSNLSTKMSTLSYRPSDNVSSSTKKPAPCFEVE

Compound: C[C@@H]1C[C@H]1C(=O)N1CCN(c2cnc(C#N)c(-c3cnn(C)c3)n2)C[C@H]1C
- IC50 [1]: > 100 µM
- IC50 [2]: > 100 µM
- IC50 [3]: > 100 µM
- IC50 [4]: > 100 µM
- IC50 [5]: > 100 µM
- IC50 [6]: > 100 µM
- IC50 [7]: > 100 µM
- IC50 [8]: > 100 µM
- IC50 [9]: > 100 µM
- IC50 [10]: > 100 µM
- IC50 [11]: > 100 µM
- IC50 [12]: 23.5 µM
- inhibition [13]: 0%
- inhibition [14]: 3%
- IC50 [15]: > 100 µM
- IC50 [16]: > 100 µM
- IC50 [17]: > 100 µM
- inhibition [18]: 11%
- inhibition [19]: 0%
- IC50 [20]: > 100 µM
- IC50 [21]: > 100 µM
- IC50 [22]: > 100 µM
- inhibition [23]: 10%
- IC50 [24]: > 100 µM
- inhibition [25]: -4%

Source: ChEMBL document CHEMBL4602617, “Discovery and optimization of heteroaryl piperazines as potent and selective PI3Kδ inhibitors” (Bioorg Med Chem Lett, 2020)
